Measurements published in US9695155B2, “Herbicidal substituted pyrimidinyloxy benzene compounds” (E. I. DU PONT DE NEMOURS AND COMPANY, priority 2013, dated 2017).

Legend:
large (Lg) crabgrass [1] = assay: Test A preemergence; assay type: in vivo, Digitaria sanguinalis; conditions: for Crabgrass, Large plant response rating (0 to 100 scale): 125 g ai/ha; for Crabgrass, Large plant response rating: 500 g ai/ha, 0 to 100 scale where 0 is no effect and 100 is complete control
Method in brief: (§1)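 Injury scores run from 0, no effect, to 100, complete control, judged by eye against untreated plants roughly 10 days after treatment. Chemicals carried a surfactant in a non-phytotoxic solvent and went onto loam–sand soil preemergence or onto one- to two-leaf seedlings postemergence.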

barnyardgrass = assay: Test A postemergence; assay type: in vivo, Echinochloa crus-galli; conditions: 0 to 100 scale where 0 is no effect and 100 is complete control; for Barnyardgrass plant response rating: 125 g ai/ha; for Plant response rating, Barnyardgrass: 500 g ai/ha
Method in brief: as §1

velvetleaf = assay: Test A postemergence; assay type: in vivo, Abutilon theophrasti; conditions: 0 to 100 scale where 0 is no effect and 100 is complete control; for Velvetleaf plant response rating: 125 g ai/ha; for Plant response rating, Velvetleaf: 500 g ai/ha
Method in brief: as §1

corn [2] = assay: Test A postemergence; assay type: in vivo, Zea mays; conditions: 0 to 100 scale where 0 is no effect and 100 is complete control; for Corn plant response rating: 125 g ai/ha; for Plant response rating, Corn: 500 g ai/ha
Method in brief: as §1

Italian ryegrass = assay: Test C preemergence; assay type: in vivo, Lolium multiflorum; conditions: for Ryegrass, Italian plant response rating: preemergence; for Plant response rating, Ryegrass, Italian: Preemergence, 62 g ai/ha, scale 0 to 100, 0 no effect, 100 complete control
Method in brief: (§2)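 Preemergence: seeds sown in a loam soil–sand blend and sprayed with test chemical in a non-phytotoxic solvent mixture containing surfactant. Postemergence: plants at 2 to 18 cm (1- to 4-leaf stage) in peat-based medium, treated with the same formulation. Greenhouse 13 to 15 days, then visual rating 0 (no effect) to 100 (complete control).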

wheat, winter [3] = assay: Test C preemergence; assay type: in vivo, Triticum aestivum; conditions: for Wheat plant response rating: preemergence; for Plant response rating, Wheat: Preemergence, 62 g ai/ha, scale 0 to 100, 0 no effect, 100 complete control
Method in brief: as §2

corn [4] = assay: Test C preemergence; assay type: in vivo, Zea mays; conditions: for Corn plant response rating: preemergence; for Plant response rating, Corn: Preemergence, 62 g ai/ha, scale 0 to 100, 0 no effect, 100 complete control
Method in brief: as §2

johnsongrass [5] = assay: Test C preemergence; assay type: in vivo, Sorghum halepense; conditions: for Johnsongrass plant response rating: preemergence; for Plant response rating, Johnsongrass: Preemergence, 62 g ai/ha, scale 0 to 100, 0 no effect, 100 complete control
Method in brief: as §2

yellow nutsedge [6] = assay: Test C preemergence; assay type: in vivo, Cyperus esculentus; conditions: for Nutsedge, Yellow plant response rating: preemergence; for Plant response rating, Nutsedge, Yellow: Preemergence, 62 g ai/ha, scale 0 to 100, 0 no effect, 100 complete control
Method in brief: as §2

wheat, winter [7] = assay: Test C postemergence; assay type: in vivo, Triticum aestivum; conditions: for Wheat plant response rating: 31 g ai/ha; for Wheat plant response rating / Plant response rating, Wheat: scale 0 to 100 (0 no effect, 100 complete control)
Method in brief: as §2

corn [8] = assay: Test C postemergence; assay type: in vivo, Zea mays; conditions: for Corn plant response rating: 31 g ai/ha; for Corn plant response rating / Plant response rating, Corn: scale 0 to 100 (0 no effect, 100 complete control)
Method in brief: as §2

large (Lg) crabgrass [9] = assay: Test C postemergence; assay type: in vivo, Digitaria sanguinalis; conditions: for Crabgrass, Large plant response rating: 31 g ai/ha; for Crabgrass, Large plant response rating / Plant response rating, Crabgrass, Large: scale 0 to 100 (0 no effect, 100 complete control)
Method in brief: as §2

giant foxtail = assay: Test C postemergence; assay type: in vivo, Setaria faberii; conditions: for Foxtail, Giant plant response rating: 31 g ai/ha; for Foxtail, Giant plant response rating / Plant response rating, Foxtail, Giant: scale 0 to 100 (0 no effect, 100 complete control)
Method in brief: as §2

johnsongrass [10] = assay: Test C postemergence; assay type: in vivo, Sorghum halepense; conditions: for Johnsongrass plant response rating: 31 g ai/ha; for Johnsongrass plant response rating / Plant response rating, Johnsongrass: scale 0 to 100 (0 no effect, 100 complete control)
Method in brief: as §2

yellow nutsedge [11] = assay: Test C postemergence; assay type: in vivo, Cyperus esculentus; conditions: for Nutsedge, Yellow plant response rating: 31 g ai/ha; for Nutsedge, Yellow plant response rating / Plant response rating, Nutsedge, Yellow: scale 0 to 100 (0 no effect, 100 complete control)
Method in brief: as §2

[12] = 16 g ai/ha, scale 0 to 100 (0 no effect, 100 complete control)
[13] = 125 g ai/ha, scale 0 (no effect) to 100 (complete control)
[14] = 16 g ai/ha, postemergence, 0 is no effect, 100 is complete control
[15] = postemergence, visual rating, 13 to 15 days
[16] = 125 g ai/ha, postemergence, visual rating
[17] = 250 g ai/ha, scale 0 (no effect) to 100 (complete control)
[18] = Postemergence, 62 g ai/ha, 13 to 15 days

Cc1cnc(Oc2cccc(C#N)c2-n2cc(C(F)(F)F)cn2)nc1 [Compound 180]
Crabgrass, Large plant response rating (0 to 100 scale) (large (Lg) crabgrass [1]): 100
Crabgrass, Large plant response rating (large (Lg) crabgrass [1]): 100
Barnyardgrass plant response rating (barnyardgrass): 90
Plant response rating, Barnyardgrass (barnyardgrass): 100
Velvetleaf plant response rating (velvetleaf): 100
Plant response rating, Velvetleaf (velvetleaf): 100
Corn plant response rating (corn [2]): 70
Plant response rating, Corn (corn [2]): 90
Ryegrass, Italian plant response rating (Italian ryegrass; [12]): 5
Ryegrass, Italian plant response rating (Italian ryegrass; [13]): 80
Plant response rating, Ryegrass, Italian (Italian ryegrass): 50
Wheat plant response rating (wheat, winter [3]; [12]): 0
Wheat plant response rating (wheat, winter [3]; [13]): 50
Plant response rating, Wheat (wheat, winter [3]): 5
Corn plant response rating (corn [4]; [12]): 5
Corn plant response rating (corn [4]; [13]): 65
Plant response rating, Corn (corn [4]): 30
Johnsongrass plant response rating (johnsongrass [5]; [12]): 0
Johnsongrass plant response rating (johnsongrass [5]; [13]): 98
Plant response rating, Johnsongrass (johnsongrass [5]): 75
Nutsedge, Yellow plant response rating (yellow nutsedge [6]; [12]): 5
Nutsedge, Yellow plant response rating (yellow nutsedge [6]; [13]): 85
Plant response rating, Nutsedge, Yellow (yellow nutsedge [6]): 65
Plant response rating (0 to 100), Wheat (wheat, winter [7]; [14]): 0
Wheat plant response rating (wheat, winter [7]; [15]): 0
Plant response rating, Wheat (wheat, winter [7]; [16]): 5
Plant response rating, Wheat (wheat, winter [7]; Postemergence, 62 g ai/ha): 0
Plant response rating (0 to 100), Corn (corn [8]; [14]): 0
Corn plant response rating (corn [8]; [15]): 5
Plant response rating, Corn (corn [8]; [16]): 10
Plant response rating, Corn (corn [8]; Postemergence, 62 g ai/ha): 5
Plant response rating (0 to 100), Crabgrass, Large (large (Lg) crabgrass [9]; [14]): 5
Crabgrass, Large plant response rating (large (Lg) crabgrass [9]; [15]): 5
Plant response rating, Crabgrass, Large (large (Lg) crabgrass [9]; [16]): 35
Plant response rating, Crabgrass, Large (large (Lg) crabgrass [9]; Postemergence, 62 g ai/ha): 5
Plant response rating (0 to 100), Foxtail, Giant (giant foxtail; [14]): 5
Foxtail, Giant plant response rating (giant foxtail; [15]): 5
Plant response rating, Foxtail, Giant (giant foxtail; [16]): 80
Plant response rating, Foxtail, Giant (giant foxtail; Postemergence, 62 g ai/ha): 10
Plant response rating (0 to 100), Johnsongrass (johnsongrass [10]; [14]): 0
Johnsongrass plant response rating (johnsongrass [10]; [15]): 0
Plant response rating, Johnsongrass (johnsongrass [10]; [16]): 5
Plant response rating, Johnsongrass (johnsongrass [10]; Postemergence, 62 g ai/ha): 0
Plant response rating (0 to 100), Nutsedge, Yellow (yellow nutsedge [11]; [14]): 0
Nutsedge, Yellow plant response rating (yellow nutsedge [11]; [15]): 0
Plant response rating, Nutsedge, Yellow (yellow nutsedge [11]; [16]): 10
Plant response rating, Nutsedge, Yellow (yellow nutsedge [11]; Postemergence, 62 g ai/ha): 10

N#Cc1cnn(-c2c(C#N)cccc2Oc2ncc(Cl)cn2)c1 [Compound 200]
Crabgrass, Large plant response rating (0 to 100 scale) (large (Lg) crabgrass [1]): 100
Crabgrass, Large plant response rating (large (Lg) crabgrass [1]): 100
Barnyardgrass plant response rating (barnyardgrass): 80
Plant response rating, Barnyardgrass (barnyardgrass): 90
Velvetleaf plant response rating (velvetleaf): 100
Plant response rating, Velvetleaf (velvetleaf): 100
Corn plant response rating (corn [2]): 50
Plant response rating, Corn (corn [2]): 60
Ryegrass, Italian plant response rating (Italian ryegrass; [13]): 85
Ryegrass, Italian plant response rating (Italian ryegrass; [17]): 95
Plant response rating, Ryegrass, Italian (Italian ryegrass): 70
Wheat plant response rating (wheat, winter [3]; [13]): 90
Wheat plant response rating (wheat, winter [3]; [17]): 95
Plant response rating, Wheat (wheat, winter [3]): 65
Corn plant response rating (corn [4]; [13]): 60
Corn plant response rating (corn [4]; [17]): 75
Plant response rating, Corn (corn [4]): 5
Johnsongrass plant response rating (johnsongrass [5]; [13]): 98
Johnsongrass plant response rating (johnsongrass [5]; [17]): 98
Plant response rating, Johnsongrass (johnsongrass [5]): 98
Nutsedge, Yellow plant response rating (yellow nutsedge [6]; [13]): 90
Nutsedge, Yellow plant response rating (yellow nutsedge [6]; [17]): 95
Plant response rating, Nutsedge, Yellow (yellow nutsedge [6]): 40
Wheat plant response rating (wheat, winter [7]; [15]): 0
Plant response rating, Wheat (wheat, winter [7]; [16]): 5
Plant response rating (0 to 100), Wheat (wheat, winter [7]; 250 g ai/ha, postemergence): 5
Plant response rating, Wheat (wheat, winter [7]; [18]): 0
Corn plant response rating (corn [8]; [15]): 5
Plant response rating, Corn (corn [8]; [16]): 15
Plant response rating (0 to 100), Corn (corn [8]; 250 g ai/ha, postemergence): 20
Plant response rating, Corn (corn [8]; [18]): 10
Crabgrass, Large plant response rating (large (Lg) crabgrass [9]; [15]): 5
Plant response rating, Crabgrass, Large (large (Lg) crabgrass [9]; [16]): 15
Plant response rating (0 to 100), Crabgrass, Large (large (Lg) crabgrass [9]; 250 g ai/ha, postemergence): 20
Plant response rating, Crabgrass, Large (large (Lg) crabgrass [9]; [18]): 5
Foxtail, Giant plant response rating (giant foxtail; [15]): 5
Plant response rating, Foxtail, Giant (giant foxtail; [16]): 5
Plant response rating (0 to 100), Foxtail, Giant (giant foxtail; 250 g ai/ha, postemergence): 15
Plant response rating, Foxtail, Giant (giant foxtail; [18]): 5
Johnsongrass plant response rating (johnsongrass [10]; [15]): 5
Plant response rating, Johnsongrass (johnsongrass [10]; [16]): 5
Plant response rating (0 to 100), Johnsongrass (johnsongrass [10]; 250 g ai/ha, postemergence): 30
Plant response rating, Johnsongrass (johnsongrass [10]; [18]): 5
Nutsedge, Yellow plant response rating (yellow nutsedge [11]; [15]): 5
Plant response rating, Nutsedge, Yellow (yellow nutsedge [11]; [16]): 30
Plant response rating (0 to 100), Nutsedge, Yellow (yellow nutsedge [11]; 250 g ai/ha, postemergence): 35
Plant response rating, Nutsedge, Yellow (yellow nutsedge [11]; [18]): 5
